The star is where a group is joined. Biotin = O=C1N[C@H]2[C@H](CS[C@H]2CCCCC(=O)*)N1; Myristoyl = CCCCCCCCCCCCCC(=O)*
What was measured:
[1] = Detection of biotin by pH arming (avidin cloaking, calcein liposomes)
Excerpt: The modified peptide retained its activity and pH responsive properties upon modification with biotin. […] In FIG. 2, the curves from top to bottom represent (i) Peptide at pH 6.6, (ii) Peptide at pH 8 and (iii) background signal in the absence of any peptide. In FIG. 2A, the curves from top to bottom represent peptide in the presence of (i) 11 piccolos of biotin and 1,2 fold excess avidin at pH 6.6, (ii) 1.2 fold excess avidin at pH 6.6, (iii) 11 piccolos of biotin and 1.2 fold avidin at pH 8 and (iv) 1.2 fold excess avidin at pH 8.
The biotin assay using pH sensitive peptide was repeated in a glass vial which could be illuminated with a small torch or blue LED light source. Specifically, the vials contained 1.2 ml of biotinylated hybrid peptide (17 nM) in PBS buffer pH 6.2 containing calcein liposomes ([…]) and 1.2 fold excess avidin. Biotin was present in vials 3 to 6 in increasing concentration. Vials are as follows: (1) Background sample containing liposomes only, (2) no biotin, (3) 12 pmoles biotin, (4) 15 pmoles biotin, (5) 17 pmoles biotin, (6) 50 pmoles Samples were illuminated by simple 3 mm blue diodes from underneath the cuvettes. Photographs in the order top to bottom, were taken at indicated times from addition of liposomes. The actual fluorescence readings taken on a fluorimeter at five minute period are also shown graphically. Five minutes after the addition of all reagents the fluorescence became clearly visible to the naked eye compared to the background which remained low and constant allowing detection of 12 picomole of biotin rapidly without any instrumentation. (FIG. 3). However, instrumentation available in most laboratories (e.g., fluorescence, absorption, luminescence, electrochemical, biosensors), can also be used for quantitative analysis by changing the signal development molecules incorporated into the liposomes.
Peptides were prepared at concentrations ranging from 1 to 0.01 mg/ml, depending on the activity of peptide, in deionised. A stock solution of avidin (5 unit per ml, one unit of avidin binds 1 μg of biotin.) was prepared in PBS pH 7.4 buffer. Biotin, from a stock solution of 10 mg/ml prepared in DMSO, was diluted 10000 fold with water to obtain working concentrations of 1 μg/ml. A typical cytolytic assay was performed in a total volume of 2 ml PBS buffer containing calcein liposomes (5 μM lipid) as prepared above. The progress of dye leakage was continually followed using excitation and emission wavelengths of 490 and 520 nm respectively. Peptide of known concentrations-was added at certain time points and the solution was rapidly mixed while continuing to measure signal. For uncloaking the peptide activity using biotin, the additions were made to the buffer sequentially in the order avidin, 2 minute incubation with biotin followed by the addition of biotinylated peptide (44 nM). The mixture was incubated for filter 2 minutes and fluorescence measurement initiated. At selected time points liposomes (7 μM) were added and solution mixed. For the cloaking experiments the additions were essentially the same except no free biotin was added. The avidin concentration was a 1.2 fold excess units to ensure complete cloaking. For evaluating dual trigger switching properties of biotinylated peptide the liposomes (7 μM lipid) in 2 ml of buffer were treated with peptide. (2.8 nM) and fluorescence measured continually. For cloaking experiments and pH arming the peptide solution (2.8 nM) was incubated with a 1.2 fold excess of avidin solution for 3 minutes and the cytolytic assay performed at pH 6.6 and 8. For the uncloaking experiments the avidin was pre-incubated with 11 picomoles of biotin solution.
In the control sample, liposomes (4 μM lipid) were added to 1.2 ml solution of peptide (14 nM) pre-incubated with a 1.2 fold excess avidin. Test samples contained biotin at known concentrations. […]

[2] = Liposome-peptide integral complex: pH-triggered calcein release and stability; conditions: complex tested 40 minutes from preparation; FIG. 9
Excerpt: A fatty acid incorporated on the N-terminal of peptide anchors the sequence with liposomes to form integral complex which can then be used as single stable reagent that can be triggered to release the contents-of the liposomoes when the pH is ideal (i.e physiological 7.4) or acidic (e.g 6.2). In the first instance we prepared the liposome-peptide complex at a predetermined ratio of lipid-to peptide (30:1) in pH 8 buffer using peptide 10. […] The complex between liposomes and peptide was formed by adding peptide to […] of 10 mM NaP containing 140 mM NaCl, 1 mM EDTA, 5 mM Hepes pH 8 buffer, containing 100 μl of calcein encapsulating liposomes. The mixture was incubated for 20 mins to form the complex prior to use. In order to ascertain that the lysis is occurring due to the formation of complex and not as the action of the peptide per se it was essential to purify the liposome-peptide complex. The peptide to lipid ratio in this complex is 1:30. The complex was applied to a Sepharose CL-6B column. Fractions corresponding to liposomes were collected as clearly visible to the eye. Aliquots of these fractions were then tested for lytic activity at acidic and physiological pH values. The key aim was to establish that the peptide is liposome associated and would thus be eluted with liposome fraction in the void volume. We used 100 μl complex (a column purified fraction) and followed the release of Calcein at two different pH values.
FIG. 8A. […] Upper curve pH 5.8. Lower curve pH 7.4.
2 ml buffer (10 mM Na phosphate, 140 mM NaCl, 1 mM EDTA, 5 mM HEPES)+50 μl purified complex. Lipsomes used were 50 nm extruded. Curves top to bottom are pH 6.2, 6.4, 6.7, 7.0, 7.4
Complex 20 μl liposomes+60 μl pH 8 buffer+20 μl peptide (0.1 mg/ml) prepared and used within 2 minutes. 10 μl was added to each of the cuvettes containing 2 ml buffers. Top curve pH 6.2 (triton was added towards the end indicated by sharp dip in fluorescence to check full lysis), the lower curve is at pH 7.4. Samples measured simultaneously.
5 μL of complex in 2 ml of buffer tested 20 minutes after preparation. Upper curve pH 6.2, Lower curve pH 7.4.
5 μL of complex in 2 ml of buffer tested 5 hrs after preparation. Upper curve pH 6.2 and lower curve pH 7.4.
5 μL of complex in 2 ml of buffer tested 24 hrs after preparation curve pH 6.2, Lower curve pH 7.4.

[3] = tested on: Rif-1 allografts; test: In vivo imaging of calcein release, dorsal window chamber with implanted tumours; parameters: species or system mice; conditions: for calcein fluorescence in tumour after armed complex relative to control liposomes: 100 μl complex via tail vein, untreated (No MIBG/glucose) mice, FIG. 10
Description: Similar methodology could be used for in vivo imaging of tumours whereby the payload is a marker or diagnostic reagent sequestered inside liposomes. For instance, when using the dye calcein, the pH released dye would be detected by increase in green fluorescence. […] Complex was prepared from biotinylated peptide (1) by adding 10 μl of pH 8 buffer to 41 μg of peptide to which was added 150 μl of Hposomes encapsulating calcein. The complex was incubated briefly and 100 μl was injected via the tail vein into mice with implanted tumours. The control mice were given equivalent levels of untreated liposomes. Using the dorsal window chamber model (Biophysics. 1997,1785-1790 & Nature Biotechnology 1999,17,1033-1035,) with implanted tumours (Rif-1 allografts) direct in vivo examination of the calcein in and around the tumours was made by fluorescence microscopy and computer controlled time-lapse images. […] Note that many tumours in animals and human, Rif-1 being one example, have an ambient pH that is slightly lower than that of normal tissue (Science 1980, 210,1253-1255 & Cancer Res 1989,4373-4384). This pathophysiological feature of tumours may be used for cancer detection. Thus unarming the complex which triggers below but close to physiological pH causes the release of dye almost immediately. This way the armed complexes can be used for in vivo detection of disease and particularly for the detection of cancer. Similarly, if the payload was combination of calcein dye and anticancer drug it would be possible to detect and treat with same formulation offering major advantages for diagnosis and treatment.

[4] = Cytolytic activity of pH-responsive peptides on calcein liposomes at different pH; conditions: liposomes 4 μM lipid; 14 nM peptide 2, 20 nM peptide 7, 45 nM peptide 9; FIG. 4
Description: Liposomes encapsulating calcein dye were prepared by an extrusion method (Biochim. Biophys. Acta, 812 (1985) 55). Phophatidylcholine (50 mg) and cholesterol (13.08 mg) which had been dissolved in 4 ml of 50% v/v chloroform methanol solution were evaporated to form a lipid film in a round bottom flask. If it is essential to follow the fate of liposomes a lipohilic-dye such as DiI (50 μg) could be incorporated into the lipid film prior to hydration. The film was then hydrated with 4 ml of 120 mM calcein solution prepared in 10 mM sodium phosphate 20 mM Sodium chloride buffer pH 7.4. Liposomes were formed by 10 extrusion cycles through 0.2 micron or 0.1 um polycarbonate filters using the Liposofast 100 (Avestin) extruder device. The non encapsulated dye was removed by gel filtration on a PD-10 column using iso-osmotic buffer. The total lipid concentration of the liposomes was measured by the Stewart assay and adjusted to 3 mg per ml.
The cytolytic activity of pH-responsive peptides was followed by adding 2 or 3 μl of liposomes to a 2 ml assay volume and continually recording fluorescence. Buffers were made of 10 mM Na phosphate, 140 mM NaCl, 1 mM EDTA, 5 mM HEPES at several different pH values. […] In the experiments 2 ml of 10 mM Na phosphate, 140 mM NaCl, 1 mM EDTA, 5 mM HEPES buffer (at pH values indicated on the figure) containing liposomes (4 μM lipid) and (A) 14 nM peptide 2, (B) 20 nM peptide 7 (C) 45 nM peptide 9. In all cases peptides were added indicated by sharp dip in fluorescence were used. The pH values are as indicated for each trace. […] In general, it is well documented that many proteins including receptors, enzymes and antibodies has pH optimum usually closer to physiological value. On either side of the pH optimum the binding activity is reduced. However in general as activity profile is typically bell shape most proteins would tolerate at least a pH unit shift from optimum. Obviously the closer the results are to pH 7.4 the higher chances their are for efficient binding with target proteins or receptors.

| Substance | cloaking of the complex by avidin binding ([1]; 1.2 fold excess avidin) | release in the presence of analyte (biotin) and avidin at acidic pH ([1]; biotin, 1.2 fold excess avidin, pH 6.6) | release in the presence of analyte (biotin) and avidin at pH 8 ([1]; biotin, 1.2 fold excess avidin, pH 8) | amount of biotin detected by naked eye ([1]; glass vial, blue LED, five minutes, PBS pH 6.2, 1.2 fold excess avidin) [picomole] | activity of peptide-liposome complex at acidic pH ([1]; pH 6.6, FIG. 2) | activity of peptide-liposome complex at alkaline pH ([1]; pH 8, FIG. 2) | triggering of complex [2] | calcein fluorescence in tumour after armed complex relative to control liposomes [3] | calcein fluorescence in tumour after armed complex relative to control liposomes ([3]; listed as biotinylated peptide (1)) | triggering pH relative to another peptide ([3]; mouse, in vivo) | pH of triggering (pH profile of calcein release from liposomes) [4] [pH] |
| --- | --- | --- | --- | --- | --- | --- | --- | --- | --- | --- | --- |
| Myristoyl-EAALAEALAEALAEGK(Biotin)PALISWIRRRLQQ-NH2 [peptide 1] | efficiently cloaked | triggered | only slight release | 12 | active | inactive | trigger in acidic media | significant release of payload | intense image | closer to physiological pH than peptide 9 |  |
| Myr-EAALAEALAEALAEGKPALISWIRRRLQQ-amide (Myristoyl-EAALAEALAEALAEGKPALISWIRRRLQQ-NH2; SMILES CCCCCCCCCCCCCC(=O)N[C@@H](CCC(=O)O)C(=O)N[C@@H](C)C(=O)N[C@@H](C)C(=O)N[C@@H](CC(C)C)C(=O)N[C@@H](C)C(=O)N[C@@H](CCC(=O)O)C(=O)N[C@@H](C)C(=O)N[C@@H](CC(C)C)C(=O)N[C@@H](C)C(=O)N[C@@H](CCC(=O)O)C(=O)N[C@@H](C)C(=O)N[C@@H](CC(C)C)C(=O)N[C@@H](C)C(=O)N[C@@H](CCC(=O)O)C(=O)NCC(=O)N[C@@H](CCCCN)C(=O)N1CCC[C@H]1C(=O)N[C@@H](C)C(=O)N[C@@H](CC(C)C)C(=O)N[C@H](C(=O)N[C@@H](CO)C(=O)N[C@@H](Cc1c[nH]c2ccccc12)C(=O)N[C@H](C(=O)N[C@@H](CCCNC(=N)N)C(=O)N[C@@H](CCCNC(=N)N)C(=O)N[C@@H](CCCNC(=N)N)C(=O)N[C@@H](CC(C)C)C(=O)N[C@@H](CCC(N)=O)C(=O)N[C@@H](CCC(N)=O)C(N)=O)[C@@H](C)CC)[C@@H](C)CC) [peptide 2] |  |  |  |  |  |  |  |  |  |  | ~7 |
| Myr-GIGAVLRVLTTG(TLLEFLLEELLEFL)KPALISWIRRRQQ-Amide [peptide 7] |  |  |  |  |  |  |  |  |  |  | ~7 |

— patent publication US7718613B2, “Armed peptides” (priority 2001, dated 2010)
